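Growth conditions: 96-well plates. Treatment: test compound, 48 hours, 5 concentrations. Analysis: linear interpolation between bracketing concentrations; unreached endpoints set to highest concentration. GI50 marks 50% less growth. At the TGI there is no net growth.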
Legend:
Assay in all cases: growth of human tumour cells (NCI), 48 h
[1] = tested on: SF-295 CNS
[2] = tested on: HCT-116 colon
[3] = tested on: COLO 205 colon
[4] = tested on: NCI-H522 lung
[5] = tested on: RXF 393 renal
[6] = tested on: HOP-92 NSCLC
[7] = tested on: HOP-62 NSCLC
[8] = tested on: M14 melanoma
[9] = tested on: MALME-3M melanoma
[10] = tested on: NCI-H460 lung
[11] = tested on: ACHN renal
[12] = tested on: HL-60(TB) leukemia
[13] = tested on: MCF7 breast
[14] = tested on: SNB-19 CNS
[15] = tested on: A498 renal
[16] = tested on: NCI-H23 lung
[17] = tested on: SF-268 CNS
[18] = tested on: MDA-MB-468 breast
[19] = tested on: KM12 colon
[20] = tested on: SF-539 CNS
[21] = tested on: MDA-MB-435
[22] = tested on: HCC-2998 colon
[23] = tested on: SNB-75 CNS
[24] = tested on: IGROV1 ovarian
[25] = tested on: 786-0 renal
[26] = tested on: HT29 colon
[27] = tested on: NCI-H226 lung
[28] = tested on: CAKI-1 renal
[29] = tested on: RPMI-8226 leukemia
[30] = tested on: EKVX NSCLC
[31] = tested on: MOLT-4 leukemia
[32] = tested on: OVCAR-3 ovarian
[33] = tested on: HS 578T breast
[34] = tested on: A549 NSCLC
[35] = tested on: UACC-62 melanoma
[36] = tested on: PC-3 prostate
[37] = tested on: SK-MEL-28 melanoma
[38] = tested on: K-562 leukemia
[39] = tested on: SW-620 colon
[40] = tested on: SN12C renal
[41] = tested on: BT-549 breast
[42] = tested on: U251 CNS
[43] = tested on: SK-OV-3 ovarian
[44] = tested on: SK-MEL-5 melanoma
[45] = tested on: SK-MEL-2 melanoma
[46] = tested on: OVCAR-5 ovarian
[47] = tested on: OVCAR-4 ovarian
[48] = tested on: HCT-15 colon
[49] = tested on: LOX IMVI melanoma
[50] = tested on: T-47D breast
[51] = tested on: DU-145 prostate
[52] = tested on: CCRF-CEM leukemia
[53] = tested on: OVCAR-8 ovarian
[54] = tested on: UACC-257 melanoma
[55] = tested on: NCI/ADR-RES ovarian
[56] = tested on: TK-10 renal

## CCCCCCCCCCCCCCCCCCCC(=O)NCCc1c[nH]c2ccc(OC(=O)NOCCOCCOCCOCCOCCOCCOCCOCCOCCOCCOCCOCCOCCOCCOCCOCCOCCOCCOCCOCCOCCOCCOC)cc12
[1]
  GI50: 17.8 µM
  TGI: 36.7 µM
[2]
  GI50: 17.4 µM
  TGI: 38.2 µM
[3]
  GI50: 16.6 µM
  TGI: 30.9 µM
[4]
  GI50: 14.9 µM
  TGI: 28.8 µM
[5]
  GI50: 19.7 µM
  TGI: 53.6 µM
[6]
  GI50: 6.3 µM
  TGI: 44.7 µM
[7]
  GI50: 17.8 µM
  TGI: 36.3 µM
[8]
  GI50: 17.5 µM
  TGI: 35.2 µM
[9]
  GI50: 14.4 µM
  TGI: 29.3 µM
[10]
  GI50: 23.4 µM
  TGI: 79.4 µM
[11]
  GI50: 45.7 µM
  TGI: > 100 µM
[12]
  GI50: 14.4 µM
  TGI: 32.7 µM
[13]
  GI50: 11 µM
  TGI: 28.5 µM
[14]
  GI50: 20.3 µM
  TGI: 51.7 µM
[15]
  GI50: 25.9 µM
  TGI: 89.9 µM
[16]
  GI50: 19.9 µM
  TGI: 46.2 µM
[17]
  GI50: 14.8 µM
  TGI: 52.7 µM
[18]
  GI50: 11.9 µM
  TGI: 26.3 µM
[19]
  GI50: 19.8 µM
  TGI: 41.2 µM
[20]
  GI50: 17.9 µM
  TGI: 40 µM
[21]
  GI50: 20.6 µM
  TGI: 48.6 µM
[22]
  GI50: 15.6 µM
  TGI: 30 µM
[23]
  GI50: 26.9 µM
  TGI: 86 µM
[24]
  GI50: 21.4 µM
  TGI: 57.1 µM
[25]
  GI50: 31 µM
  TGI: 89 µM
[26]
  GI50: 15.6 µM
  TGI: 30.8 µM
[27]
  GI50: 17.4 µM
  TGI: 38.5 µM
[28]
  GI50: > 100 µM
  TGI: > 100 µM
[29]
  GI50: 11.8 µM
  TGI: 37.6 µM
[30]
  GI50: 20.9 µM
  TGI: 88.4 µM
[31]
  GI50: 5.32 µM
  TGI: 24.9 µM
[32]
  GI50: 13.2 µM
  TGI: 53.3 µM
[33]
  GI50: 16.6 µM
  TGI: 41.2 µM
[34]
  GI50: 17.7 µM
  TGI: 47.9 µM
[35]
  GI50: 17 µM
  TGI: 31.4 µM
[36]
  GI50: 18.3 µM
  TGI: 70.9 µM
[37]
  GI50: 15.9 µM
  TGI: 33.9 µM
[38]
  GI50: 17.7 µM
  TGI: 70.9 µM
[39]
  GI50: 17.8 µM
  TGI: 33.1 µM
[40]
  GI50: 15.1 µM
  TGI: 39.5 µM
[41]
  GI50: 14.1 µM
  TGI: 28.5 µM
[42]
  GI50: 16.7 µM
  TGI: 32.8 µM
[43]
  GI50: 19.1 µM
  TGI: 41.3 µM
[44]
  GI50: 13.5 µM
  TGI: 26.5 µM
[45]
  GI50: 12.8 µM
  TGI: 26 µM
[46]
  GI50: 17.3 µM
  TGI: 41.9 µM
[47]
  GI50: 18.7 µM
  TGI: 87.7 µM
[48]
  GI50: 54.4 µM
  TGI: > 100 µM
[49]
  GI50: 14.9 µM
  TGI: 28.5 µM
[50]
  GI50: 9.98 µM
  TGI: 23.2 µM
[51]
  GI50: 28 µM
  TGI: > 100 µM
[52]
  GI50: 13.5 µM
  TGI: 33.8 µM
[53]
  GI50: 16.4 µM
  TGI: 46.2 µM
[54]
  GI50: 14.7 µM
  TGI: 30.2 µM
[55]
  GI50: > 100 µM
  TGI: > 100 µM
[56]
  GI50: 19.5 µM
  TGI: 56.1 µM

Reference: PubChem BioAssay (NCI)
